Results on 61 compounds are retold here after doi:10.1101/2021.10.07.463234v2 (biorxiv, 2021).

In the assay the target is SARS-CoV-2 Mac1 (Severe acute respiratory syndrome coronavirus 2, UniProt P0DTD1). Briefly: biochemical. To be noted: for inhibition at 100 µM: read-out: %inhibition; for %inhibition: 100 µM, inhibitor.

Structures can show the parent of a compound that is named as a salt.

Broadly, the inhibition is the change of the read-out against control, counted positive when it falls. On to `C#C[C@]1(O)CC[C@H]2[C@@H]3CCc4cc(OC5CCCC5)ccc4[C@H]3CC[C@@]21C` [Quinestrol], for which the inhibition at 100 µM came out at 0%.

As to `C=C[C@H]1CN2CC[C@H]1C[C@@H]2[C@@H](O)c1ccnc2ccc(OC)cc12` [Quinidine sulfate], the inhibition at 100 µM was 0%. The same measure, in the same setting: the same measure for `C=C[C@H]1CN2CC[C@H]1C[C@H]2[C@H](O)c1ccnc2ccc(OC)cc12` [Quinine HCl Dihydrate]: 0%; for `Cn1cc(CNCC2CCN(c3ncc(C(=O)NO)cn3)CC2)c2ccccc21` [Quisinostat (JNJ-26481585) 2HCl]: 0%.

For `CC(C)(C)c1cc(NC(=O)Nc2ccc(-c3cn4c(n3)sc3cc(OCCN5CCOCC5)ccc34)cc2)no1` [Quizartinib (AC220)], the inhibition at 100 µM came out at 0%. What is called %inhibition is the change of the read-out against control, counted positive when it falls. Consider `COc1cc(Nc2ncc(F)c(Nc3ccc4c(n3)N(COP(=O)(O)O)C(=O)C(C)(C)O4)n2)cc(OC)c1OC` [R788 (Fostamatinib) Disodium], for which the “%inhibition” value was found to be 15.48%. On the same count and under the same terms, the value for `COCCCOc1ccnc(C[S+]([O-])c2nc3ccccc3[nH]2)c1C` (stereo not shown) [Rabeprazole] was 0.1163%. With `CC(=O)SCC(Cc1ccccc1)C(=O)NCC(=O)OCc1ccccc1` (stereo not shown) [Racecadotril], the inhibition at 100 µM was 0%. Take `CC(CCc1ccc(O)cc1)NCC(O)c1ccc(O)cc1` (stereo not shown) [Ractopamine HCl]: the inhibition at 100 µM was found to be 0%. For the compound `Cc1cn(-c2cc(NC(=O)c3ccc(C)c(Nc4nccc(-c5cnccn5)n4)c3)cc(C(F)(F)F)c2)cn1` [Radotinib], the inhibition at 100 µM was found to be 1.77%. Same read-out and setting: the same measure for `CC(C)(C)Cn1c(N)nc2ccc(-c3[nH]c(C(C)(C)C)nc3-c3ccc(F)cc3)nc21` [Ralimetinib (LY2228820)]: 0.925%; for `O=C(c1ccc(OCCN2CCCCC2)cc1)c1c(-c2ccc(O)cc2)sc2cc(O)ccc12` [Raloxifene HCl]: 63.1%. Regarding `Cc1nnc(C(=O)NC(C)(C)c2nc(C(=O)NCc3ccc(F)cc3)c(O)c(=O)n2C)o1` [Raltegravir (MK-0518)], the “%inhibition” value amounted to 3.868%. The same measure, in the same setting: the same measure for `Cc1nnc(C(=O)NC(C)(C)c2nc(C(=O)NCc3ccc(F)cc3)c(O)c(=O)n2C)o1` [Raltegravir potassium]: 7.113%. As for `Cc1nc(=O)c2cc(CN(C)c3ccc(C(=O)N[C@@H](CCC(=O)O)C(=O)O)s3)ccc2[nH]1` [Raltitrexed], the inhibition at 100 µM stood at 24.8%.

In the case of `O=C(O)CCn1c2c(c3ccccc31)C[C@H](NS(=O)(=O)c1ccc(F)cc1)CC2` [Ramatroban], the inhibition at 100 µM worked out at 4.2%.

On to `CCC(=O)NCC[C@@H]1CCc2ccc3c(c21)CCO3` [Ramelteon], for which the inhibition at 100 µM turned out to be 21%. `CCOC(=O)[C@H](CCc1ccccc1)N[C@@H](C)C(=O)N1[C@H](C(=O)O)C[C@@H]2CCC[C@@H]21` [Ramipril]: the inhibition at 100 µM came to 0%. The same measure, in the same setting: the same measure for `Cn1cc(C(=O)[C@@H]2CCc3[nH]cnc3C2)c2ccccc21` [Ramosetron Hydrochloride]: 0%; for `CNC(=C[N+](=O)[O-])NCCSCc1ccc(CN(C)C)o1` [Ranitidine Hydrochloride]: 10.7%. With `COc1ccccc1OCC(O)CN1CCN(CC(=O)Nc2c(C)cccc2C)CC1` (stereo not shown) [Ranolazine 2HCl], the “%inhibition” value came out at 0%.

As to `COc1ccccc1OCC(O)CN1CCN(CC(=O)Nc2c(C)cccc2C)CC1` (stereo not shown) [Ranolazine], the “%inhibition” value was 11.36%.

As to `CO[C@H]1C[C@@H]2CC[C@@H](C)[C@@](O)(O2)C(=O)C(=O)N2CCCC[C@H]2C(=O)O[C@H]([C@H](C)C[C@@H]2CC[C@@H](O)[C@H](OC)C2)CC(=O)[C@H](C)/C=C(\C)[C@@H](O)[C@@H](OC)C(=O)[C@H](C)C[C@H](C)/C=C/C=C/C=C/1C` [Rapamycin (Sirolimus)], the inhibition at 100 µM worked out at 30.7%. Turning to `C#CCN[C@@H]1CCc2ccccc21` [Rasagiline Mesylate], the inhibition at 100 µM came to 0%. For the compound `O=C(NC(Cc1cc(=O)[nH]c2ccccc12)C(=O)O)c1ccc(Cl)cc1` (stereo not shown) [Rebamipide], the inhibition at 100 µM is 0%. For `COCCCOc1ccnc(C[S+]([O-])c2nc3ccccc3[nH]2)c1C` (stereo not shown) [Rebeprazole sodium], the “%inhibition” value was determined as 0%. On to `CNC(=O)c1cnn(-c2nc(N)c3ncn([C@@H]4O[C@H](CO)[C@@H](O)[C@H]4O)c3n2)c1` [Regadenoson], for which the inhibition at 100 µM is 0%. `CNC(=O)c1cc(Oc2ccc(NC(=O)Nc3ccc(Cl)c(C(F)(F)F)c3)c(F)c2)ccn1` [Regorafenib (BAY 73-4506)]: the “%inhibition” value is listed as 2.978%. Still for that read-out and setting: the value for `CNC(=O)c1cc(Oc2ccc(NC(=O)Nc3ccc(Cl)c(C(F)(F)F)c3)c(F)c2)ccn1` [Regorafenib Monohydrate] was 0%.

Regarding `CCOc1cc(CC(=O)N[C@@H](CC(C)C)c2ccccc2N2CCCCC2)ccc1C(=O)O` [Repaglinide], the inhibition at 100 µM worked out at 0%. Same read-out and setting: the value for `COC(=O)[C@H]1[C@H]2C[C@@H]3c4[nH]c5cc(OC)ccc5c4CCN3C[C@H]2C[C@@H](OC(=O)c2cc(OC)c(OC)c(OC)c2)[C@@H]1OC` [Reserpine] was 0%; that for `CN(C)Cc1ccc(S(=O)(=O)n2ccc(/C=C/C(=O)NO)c2)cc1` [Resminostat] was 18.5%; that for `Oc1cccc(O)c1` [Resorcinol] was 0%. Same read-out and setting: the value for `Oc1ccc(/C=C/c2cc(O)cc(O)c2)cc1` [Resveratrol] was 0%. On the same count and under the same terms, the value for `C=C[C@]1(C)C[C@@H](OC(=O)CS[C@@H]2C[C@H]3CC[C@@H](C2)N3C)[C@]2(C)[C@H](C)CC[C@]3(CCC(=O)[C@H]32)[C@@H](C)[C@@H]1O` [Retapamulin] was 0%. As for `CCOC(=O)Nc1ccc(NCc2ccc(F)cc2)cc1N` [Retigabine 2HCl], the “%inhibition” value worked out at 8.664%. As for `CCOC(=O)Nc1ccc(NCc2ccc(F)cc2)cc1N` [Retigabine], the “%inhibition” value is 0%. Consider `NC(=O)c1ncn([C@@H]2O[C@H](CO)[C@@H](O)[C@H]2O)n1` [Ribavirin], for which the inhibition at 100 µM turned out to be 0.0871%. On the same count and under the same terms, the value for `CN(C)C(=O)c1cc2cnc(Nc3ccc(N4CCNCC4)cn3)nc2n1C1CCCC1` [Ribociclib (LEE011)] was 0.852%. Same read-out and setting: the value for `O=C(CCCCCCNC(=O)c1cnc(N(c2ccccc2)c2ccccc2)nc1)NO` [Ricolinostat (ACY-1215)] was 3.74%; that for `CO[C@H]1/C=C/O[C@@]2(C)Oc3c(C)c(O)c4c(c3C2=O)C2=NC3(CCN(CC(C)C)CC3)NC2=C(NC(=O)/C(C)=C\C=C\[C@H](C)[C@H](O)[C@@H](C)[C@@H](O)[C@@H](C)[C@H](OC(C)=O)[C@@H]1C)C4=O` [Rifabutin] was 34.6%; that for `CO[C@H]1/C=C/O[C@@]2(C)Oc3c(C)c(O)c4c(O)c(c(/C=N/N5CCN(C)CC5)c(O)c4c3C2=O)NC(=O)/C(C)=C\C=C\[C@H](C)[C@H](O)[C@@H](C)[C@@H](O)[C@@H](C)[C@H](OC(C)=O)[C@@H]1C` [Rifampin] was 31.3%.

Regarding `CO[C@H]1/C=C/O[C@@]2(C)Oc3c(C)c(O)c4c(O)c(cc(O)c4c3C2=O)NC(=O)/C(C)=C\C=C\[C@H](C)[C@H](O)[C@@H](C)[C@@H](O)[C@@H](C)[C@H](OC(C)=O)[C@@H]1C` [Rifamycin sodium salt], the inhibition at 100 µM was determined as 10.7%. Turning to `CO[C@H]1/C=C/O[C@@]2(C)Oc3c(C)c(O)c4c(O)c(c(/C=N/N5CCN(C6CCCC6)CC5)c(O)c4c3C2=O)NC(=O)/C(C)=C\C=C\[C@H](C)[C@H](O)[C@@H](C)[C@@H](O)[C@@H](C)[C@H](OC(C)=O)[C@@H]1C` [Rifapentine], the inhibition at 100 µM came to 26.7%. Still for that read-out and setting: the value for `CO[C@H]1/C=C/O[C@@]2(C)Oc3c(C)c(O)c4c(O)c(c5c(nc6cc(C)ccn65)c4c3C2=O)NC(=O)/C(C)=C\C=C\[C@H](C)[C@H](O)[C@@H](C)[C@@H](O)[C@@H](C)[C@H](OC(C)=O)[C@@H]1C` [Rifaximin] was 22.3%; that for `COc1cc(OC)c(/C=C/S(=O)(=O)Cc2ccc(OC)c(NCC(=O)O)c2)c(OC)c1` [Rigosertib (ON-01910)] was 0.0877%; that for `Cc1cc(/C=C/C#N)cc(C)c1Nc1ccnc(Nc2ccc(C#N)cc2)n1` [Rilpivirine] was 7.83%.

Regarding `Nc1nc2ccc(OC(F)(F)F)cc2s1` [Riluzole], the inhibition at 100 µM stood at 0%. The same measure, in the same setting: the value for `CC(N)[C@]12C[C@H]3C[C@H](C[C@H](C3)C1)C2` (stereo partly shown) [Rimantadine Hydrochloride] was 4.71%; that for `CC(N)C12CC3CC(CC(C3)C1)C2` (stereo not shown) [Rimantadine] was 28.1%; that for `Cc1c(C(=O)NN2CCCCC2)nn(-c2ccc(Cl)cc2Cl)c1-c1ccc(Cl)cc1` [Rimonabant] was 3.4%. `COC(=O)N(C)c1c(N)nc(-c2nn(Cc3ccccc3F)c3ncccc23)nc1N` [Riociguat (BAY 63-2521)]: the inhibition at 100 µM came out at 21.9%.

With `C[C@H]1CNCCCN1S(=O)(=O)c1cccc2cncc(F)c12` [Ripasudil (K-115) hydrochloride dihydrate], the inhibition at 100 µM amounted to 23.9%.

Take `O=P(O)(O)C(O)(Cc1cccnc1)P(=O)(O)O` [Risedronate Sodium]: the inhibition at 100 µM turned out to be 8.32%. As for `CC(C)c1nc(CN(C)C(=O)N[C@H](C(=O)N[C@@H](Cc2ccccc2)C[C@H](O)[C@H](Cc2ccccc2)NC(=O)OCc2cncs2)C(C)C)cs1` [Ritonavir], the inhibition at 100 µM turned out to be 0%. On the same count and under the same terms, the same measure for `O=C(NC[C@H]1CN(c2ccc(N3CCOCC3=O)cc2)C(=O)O1)c1ccc(Cl)s1` [Rivaroxaban]: 4.28%. With `CCN(C)C(=O)Oc1cccc([C@H](C)N(C)C)c1` [Rivastigmine Tartrate], the “%inhibition” value came to 0.5521%. Same read-out and setting: the same measure for `CCN(C)C(=O)Oc1cccc([C@H](C)N(C)C)c1` [Rivastigmine]: 0%. For `CN(C)CCc1c[nH]c2ccc(Cn3cncn3)cc12` [Rizatriptan Benzoate], the inhibition at 100 µM is 0%. On the same count and under the same terms, the same measure for `C=CC(=O)Nc1cccc(Nc2nc(Nc3ccc(N4CCN(C(C)=O)CC4)cc3OC)ncc2C(F)(F)F)c1` [Rociletinib (CO-1686, AVL-301)]: 0%; for `C=CC[N+]1([C@H]2C[C@H]3[C@@H]4CC[C@H]5C[C@H](O)[C@@H](N6CCOCC6)C[C@]5(C)[C@H]4CC[C@]3(C)[C@H]2OC(C)=O)CCCC1` [Rocuronium Bromide]: 0%.
